Results reported in ChEMBL document CHEMBL1201862, “PubChem BioAssay data set” (2004).
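1) Cells in 96-well plates. 2) Compound, 48 h, 5 concentrations. 3) Linear interpolation between surrounding doses. 4) Unreached endpoint = highest concentration. At the GI50, growth is halved.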 Activity calls are given as the source filed them. No stated cut-off is given here; in the data, active = GI50 up to about 1.1 µM and inactive = higher. Residues, ends and D or L forms follow the SMILES beside them. *: point of attachment. Cbz = O=C(OCc1ccccc1)*; Boc = CC(C)(C)OC(=O)*; OSu = O=C1CCC(=O)N1O*; Bn = c1ccc(C*)cc1

Assays:
Test in all cases: NCI-60 cell line screen, 48 h
SNB-75 = system: SNB-75
UACC-257 = system: UACC-257
NCI/ADR-RES = system: NCI/ADR-RES
LOX IMVI = system: LOX IMVI
UO-31 = system: UO-31
HT-29 = system: HT-29
U-251 = system: U-251
RPMI-8226 = system: RPMI-8226
T47D = system: T47D
MDA-MB-231 = system: MDA-MB-231
MOLT-4 = system: MOLT-4
MDA-N = system: MDA-N
SN12C = system: SN12C
SNB-19 = system: SNB-19
HCT-116 = system: HCT-116
OVCAR-8 = system: OVCAR-8
A549 = system: A549
CCRF-CEM = system: CCRF-CEM
BT-549 = system: BT-549

Measured: GI50

COc1ccc(/N=N/c2c(-c3c(OC)cc4occc4c3OC)[nH]c(=O)c(C#N)c2C)cc1
inactive: SNB-75 53.2 µM | UACC-257 > 100 µM | NCI/ADR-RES > 100 µM | LOX IMVI > 100 µM | UO-31 > 100 µM | HT-29 > 100 µM | U-251 > 100 µM | RPMI-8226 > 100 µM | T47D > 100 µM | MDA-MB-231 > 100 µM | MOLT-4 > 100 µM | MDA-N > 100 µM | SN12C > 100 µM | SNB-19 > 100 µM | HCT-116 > 100 µM | OVCAR-8 > 100 µM | A549 > 100 µM | CCRF-CEM > 100 µM

N#Cc1c(N2CCOCC2)ncn(-c2ccccc2)c1=O
inactive: SNB-75 > 100 µM | UACC-257 > 100 µM | NCI/ADR-RES > 100 µM | LOX IMVI > 100 µM | UO-31 59.4 µM | U-251 > 100 µM | RPMI-8226 > 100 µM | BT-549 > 100 µM | T47D > 100 µM | MOLT-4 > 100 µM | MDA-N > 100 µM | SN12C > 100 µM | SNB-19 > 100 µM | HCT-116 > 100 µM | OVCAR-8 > 100 µM | A549 > 100 µM | CCRF-CEM > 100 µM

C=CCCCC1(C)CCNC1=S (stereo unspecified)
inactive: SNB-75 > 100 µM | UACC-257 > 100 µM | UO-31 > 100 µM | HT-29 > 100 µM | U-251 > 100 µM | RPMI-8226 > 100 µM | BT-549 > 100 µM | T47D > 100 µM | MDA-MB-231 > 100 µM | MOLT-4 66.5 µM | MDA-N > 100 µM | SN12C > 100 µM | SNB-19 > 100 µM | HCT-116 > 100 µM | OVCAR-8 > 100 µM | A549 > 100 µM

CC(C)(C)OC(=O)NC(Cc1ccc(OCc2ccccc2)cc1)C(=O)NC(CCCCNC(=O)OCc1ccccc1)C(=O)NC(CCCCNC(=O)OCc1ccccc1)C(=O)ON1C(=O)CCC1=O (stereo unspecified) (Boc-Tyr(Bn)-Lys(Cbz)-Lys(Cbz)-OSu; configuration not given here)
inactive: SNB-75 51.6 µM | UACC-257 > 100 µM | NCI/ADR-RES > 100 µM | UO-31 > 100 µM | HT-29 41.1 µM | U-251 16.3 µM | RPMI-8226 > 100 µM | BT-549 17.9 µM | T47D 21 µM | MOLT-4 > 100 µM | MDA-N 16.6 µM | SN12C > 10 µM | SNB-19 16.6 µM | HCT-116 24.9 µM | OVCAR-8 29.1 µM | A549 > 100 µM | CCRF-CEM 66.2 µM

CC1(C)CC(=O)c2c(nc3ccc4ccccc4c3c2-c2ccc(NC(=O)CCC(=O)Nc3ccc(-c4c5c(nc6ccc7ccccc7c46)CC(C)(C)CC5=O)cc3)cc2)C1
inactive: SNB-75 28.2 µM | UACC-257 > 100 µM | NCI/ADR-RES > 100 µM | LOX IMVI > 100 µM | UO-31 > 100 µM | HT-29 > 100 µM | U-251 > 100 µM | RPMI-8226 > 100 µM | T47D > 100 µM | MDA-MB-231 > 100 µM | MOLT-4 > 100 µM | MDA-N > 100 µM | SN12C > 100 µM | SNB-19 > 100 µM | HCT-116 > 100 µM | OVCAR-8 > 100 µM | A549 > 100 µM | CCRF-CEM > 100 µM

C[C@]12CC[C@H](O)CC1=CC[C@@H]1[C@@H]2CC[C@]2(C)/C(=N/OCCN3CCCC3)CC[C@@H]12
inactive: SNB-75 19.3 µM | UACC-257 14.6 µM | NCI/ADR-RES 18.2 µM | LOX IMVI 19.1 µM | UO-31 16.7 µM | HT-29 2.7 µM | U-251 17.5 µM | RPMI-8226 15.2 µM | BT-549 16.3 µM | MDA-MB-231 19.9 µM | MOLT-4 14.1 µM | MDA-N 17.9 µM | SN12C 29 µM | SNB-19 23.4 µM | HCT-116 14.9 µM | OVCAR-8 16.3 µM

Cc1csc(NNC(N)=O)n1
inactive: SNB-75 > 100 µM | UACC-257 > 100 µM | NCI/ADR-RES > 100 µM | LOX IMVI > 100 µM | UO-31 > 100 µM | HT-29 > 100 µM | U-251 > 100 µM | BT-549 > 100 µM | MDA-MB-231 > 100 µM | MOLT-4 > 100 µM | MDA-N > 100 µM | SN12C > 100 µM | SNB-19 > 100 µM | HCT-116 > 100 µM | OVCAR-8 > 100 µM | A549 > 100 µM | CCRF-CEM > 100 µM

CCOC(=O)CCC(C(=O)OCC)n1nc2ccc(Nc3c(C)[n+]([O-])c4ccc(Cl)cc4[n+]3[O-])cc2n1 (stereo unspecified)
inactive: UACC-257 24.5 µM | NCI/ADR-RES 18.8 µM | LOX IMVI 14.4 µM | UO-31 15.5 µM | HT-29 30.9 µM | U-251 15 µM | RPMI-8226 44.9 µM | BT-549 28.1 µM | T47D 21.7 µM | MOLT-4 27.9 µM | MDA-N 42.8 µM | SN12C 18.9 µM | SNB-19 30.1 µM | HCT-116 20.6 µM | OVCAR-8 21.5 µM | A549 17.6 µM | CCRF-CEM 41.2 µM
